In patent US20080213364A1, “Formulations of Pyridoxal-5'-Phosphate and Methods of Preparation” (Medicure International, Inc., priority 2004, published 2008):

Tests used:
[1] = Single-dose pharmacokinetics study, plasma pyridoxal 5′-phosphate; details: both, human, in vivo
Description: (§1) Pharmacokinetics Study—The protocol was designed to first study a single dose of pyridoxal 5′-phosphate at three different dose levels: […] of body weight. Following evaluation of safety and tolerance, the highest tolerated dose was administered once daily for seven consecutive days. The product was manufactured as enteric-coated tablets each containing 250 mg of pyridoxal 5′-phosphate. The dose was calculated based on the body weight and rounded to the nearest 250 mg.
During the single-dose phase, blood samples were collected prior to dosing and 1, 2, 3, 4, 5, 6, 7, 8, 12, 16 and 24 hours following drug administration. During the multi-dose phase, blood samples were drawn each morning prior to dosing and 2 hours post-dose. Following the last dose on day 7, blood samples were drawn after 1, 2, 3, 4, 5, 6, 7, 8, 12, 16 and 24 hours.
Plasma samples were separated and divided into two approximately equal aliquots and stored at −70±10° C. pending shipment (over dry ice) to the analytical laboratory.
(§2) Pharmacokinetic Analysis—The following pharmacokinetic parameters were calculated: area under the curve from time zero to the last measurable concentration (AUC-T), area under the curve from time zero to infinity (AUC-inf), maximal plasma concentration (Cmax), time of maximal plasma concentration (Tmax), elimination constant (Kel), half-life (T½), mean residence time (MRT), clearance (Cl) and volume of distribution (Vd).
Whenever possible, the area under the plasma concentration-time curve was calculated from time zero to the last measurable concentration (AUC T) using the linear trapezoidal method. AUC-T is expressed as ng·h/ml. AUC-T was also normalized for body weight and expressed as ng·h/ml/kg.
The area under the curve from time zero to infinity (AUC-inf) was calculated as the sum of AUC-T+Clast/Kel where Clast represents the last measurable concentration and Kel the elimination rate constant calculated by linear least squares regression using the data points that best represent the terminal linear phase. AUC-inf is expressed as ng·h/ml. AUC-inf was also normalized for body weight and expressed as ng·h/mg/kg.
Cmax is expressed in ng/ml. Cmax was also normalized for body weight and expressed as ng/ml/kg. […]
The oral clearance was evaluated by dividing the dose (mg/kg) by AUC-inf (ng·h/mL). Clearance is expressed as L/h/kg. The actual clearance was also calculated without normalization for body weight and expressed as L/h.
The volume of distribution is actually the Vdarea calculated by dividing the clearance (L/h/kg) by Kel (h-1). Vd is expressed as L/kg and is not corrected for absolute bioavailability. The actual volume of distribution was also calculated without normalization for body weight and expressed in liters. […]

[2] = format: in vivo; details: 30 mg/kg daily as enteric coated tablets, Day 1 vs Day 7 parameters
Description: as §1
During the single-dose phase, blood samples were collected prior to dosing and 1, 2, 3, 4, 5, 6, 7, 8, 12, 16 and 24 hours following drug administration. […]
as §2
Subjects randomized to the 15 mg/kg group actually received a dose of 14.58±1.11 mg/kg. […] During the multi-dose phase of the study, the number of tablets was calculated prior to the first drug administration and remained constant throughout the duration of the study, regardless of any change in body weight. […]

## Cc1ncc(COP(=O)(O)O)c(C=O)c1O [pyridoxal 5′-phosphate]
[1]; 15 mg/kg
  mean maximal plasma concentration (mean curve, FIG. 3): 1870 ± 2652 ng/mL
  time at which mean maximal plasma concentration was reached: 6 h
[1]; 60 mg/kg
  mean maximal plasma concentration (mean curve, FIG. 3): 3922 ± 5457 ng/mL
  time at which mean maximal plasma concentration was reached: 4 h
[2]
  accumulation upon multiple dosing: does not accumulate upon multiple dosing
